“Also recorded” adds a separate entry of the source. Like-named read-outs stand apart in the source and are kept apart here.
Tests used:
[1] = system: Xenopus laevis epidermis; assay type: cell-based
[2] = system: CHO cells; assay type: cell-based, Chinese hamster
[3] = system: mouse intestinal loops challenged with cholera toxin; assay type: in vivo
[4] = physchem; settings: pH 5.5
[5] = system: mouse intestinal loops challenged with cholera toxin; assay type: in vivo; settings: 6 hour
[6] = 168 h, pH 5.5
[7] = molecular target: Adenylate Cyclase (Bordetella pertussis, UniProt P0DKX7); assay: biochemical; assay type: biochemical
[8] = enzyme 4.6 nmoles, imidazole 2.7 mmoles, PGE2-Histidine adduct 52 μmoles, celecoxib 0.52 mmoles

Chain of Adenylate Cyclase (P0DKX7 whole entry, looked up): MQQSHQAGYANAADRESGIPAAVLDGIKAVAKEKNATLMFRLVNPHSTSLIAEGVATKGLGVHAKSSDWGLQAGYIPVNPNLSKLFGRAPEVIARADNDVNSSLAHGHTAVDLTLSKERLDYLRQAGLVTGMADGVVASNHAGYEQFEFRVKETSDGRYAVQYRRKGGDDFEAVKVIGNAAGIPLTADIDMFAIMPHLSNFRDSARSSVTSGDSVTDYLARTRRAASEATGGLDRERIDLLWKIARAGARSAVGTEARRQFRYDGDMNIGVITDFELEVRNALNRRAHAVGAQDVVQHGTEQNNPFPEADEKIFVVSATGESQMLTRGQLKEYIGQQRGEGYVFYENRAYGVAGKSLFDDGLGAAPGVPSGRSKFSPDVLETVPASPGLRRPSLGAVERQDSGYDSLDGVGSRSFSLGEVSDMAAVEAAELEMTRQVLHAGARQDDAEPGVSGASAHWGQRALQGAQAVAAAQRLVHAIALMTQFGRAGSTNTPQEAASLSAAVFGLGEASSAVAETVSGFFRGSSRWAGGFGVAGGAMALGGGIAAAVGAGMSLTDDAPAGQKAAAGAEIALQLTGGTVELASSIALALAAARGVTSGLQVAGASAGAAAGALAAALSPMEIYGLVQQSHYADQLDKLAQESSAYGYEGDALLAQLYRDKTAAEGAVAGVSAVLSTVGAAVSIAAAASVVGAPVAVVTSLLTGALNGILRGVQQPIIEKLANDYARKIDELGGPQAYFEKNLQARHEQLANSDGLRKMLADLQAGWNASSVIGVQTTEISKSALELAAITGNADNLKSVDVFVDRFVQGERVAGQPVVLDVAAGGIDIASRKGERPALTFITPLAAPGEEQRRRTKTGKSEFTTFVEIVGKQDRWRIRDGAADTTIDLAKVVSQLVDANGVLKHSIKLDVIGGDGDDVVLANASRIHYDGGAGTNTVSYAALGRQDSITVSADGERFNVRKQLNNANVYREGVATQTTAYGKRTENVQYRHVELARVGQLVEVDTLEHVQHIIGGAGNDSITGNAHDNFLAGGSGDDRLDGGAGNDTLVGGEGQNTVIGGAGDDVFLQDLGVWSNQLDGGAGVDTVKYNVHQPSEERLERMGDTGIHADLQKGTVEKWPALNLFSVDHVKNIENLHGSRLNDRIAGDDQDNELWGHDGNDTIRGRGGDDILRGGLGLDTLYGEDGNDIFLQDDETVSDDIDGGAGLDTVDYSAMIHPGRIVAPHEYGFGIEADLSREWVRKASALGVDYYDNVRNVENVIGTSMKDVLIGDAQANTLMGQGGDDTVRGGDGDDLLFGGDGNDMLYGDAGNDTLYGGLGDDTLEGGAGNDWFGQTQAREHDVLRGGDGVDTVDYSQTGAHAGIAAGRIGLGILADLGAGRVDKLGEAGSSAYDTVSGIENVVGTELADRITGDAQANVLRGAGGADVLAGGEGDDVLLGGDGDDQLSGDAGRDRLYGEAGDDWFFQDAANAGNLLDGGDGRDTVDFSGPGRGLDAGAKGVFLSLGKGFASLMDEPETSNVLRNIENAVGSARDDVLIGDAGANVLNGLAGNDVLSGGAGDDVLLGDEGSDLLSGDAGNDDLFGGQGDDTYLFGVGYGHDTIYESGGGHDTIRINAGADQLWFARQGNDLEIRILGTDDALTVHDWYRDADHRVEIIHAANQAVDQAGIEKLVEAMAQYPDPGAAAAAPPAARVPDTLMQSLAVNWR

N[C@@H](Cc1c[nH]cn1)C(=O)O [L-histidine]
Difference in ISC between PGE2 and PGE2+L-histidine [1]: 78±21%
ISC, % of control [1]: 30±9 % of control
basal and PGE2-induced sodium transport [1]: reduced both basal and PGE2-induced sodium transport
PGE2- and CT-stimulated cAMP formation in CHO cells [2]: reduced the capacity of both PGE2 and CT to stimulate cAMP formation
fluid accumulation in mouse intestinal loops challenged with cholera toxin ([3]; 6 hours): as the dose of L-histidine was increased, the amount of fluid accumulation decreased; also recorded: accumulated significantly less fluid
reduction of fluid accumulation, statistical significance ([3]; 6 hours): statistical significance (P<0.05)

CC(=O)N[C@@H](CS)C(=O)O [NAC, N-acetyl-L-cysteine, reference compound]
intestinal fluid accumulation ([3]; mouse, in vivo): blocked all intestinal fluid accumulation
protection against CT-induced fluid secretion in small intestinal loops ([3]; mouse, in vivo, ip, pH 7): no protective effect

CCCCC[C@H](O)/C=C/[C@H]1C=CC(=O)[C@@H]1C/C=C\CCCC(=O)O [PGA2, reference compound]
CT-induced fluid accumulation in murine intestinal loops ([3]; mouse, in vivo): reduce CT-induced fluid accumulation in murine intestinal loops with lower potency

CCCCC[C@H](O)/C=C/C1=C(C/C=C\CCCC(=O)O)C(=O)CC1 [PGB2, reference compound]
CT-induced fluid accumulation in murine intestinal loops ([3]; mouse, in vivo): reduce CT-induced fluid accumulation in murine intestinal loops with lower potency

CCCCCC(O)/C=C/[C@H]1C(O)CC(=O)[C@H]1C/C=C\CCCC(=O)O (some centres unmarked) [PGE2, reference compound]
increase of steady-state Na+-dependent short circuit current (ISC) [1]: 14%
maximum PGE2-induced change in ISC ([1]; n=5): 18±3%

CCCCCC(O)/C=C/[C@H]1C(n2ccnc2)CC(=O)[C@H]1C/C=C\CCCC(=O)O (some centres unmarked) [PGE2-imidazole, 11-deoxy-11-imidazolyl-PGE2]
half-life [4]: ~60 h
inhibition of CT-induced cAMP formation [2]: significant inhibition; also recorded: reduces cAMP levels
reduction of cAMP levels ([2]; 0.5 μg/ml): approximately 50%
cAMP levels in the intestinal loop fluids [5]: markedly reduced
CT-induced fluid accumulation ([3]; 6 hour): significantly reduced
fluid loss following CT challenge ([3]; mouse, in vivo): completely blocked
inhibition of the CT fluid response ([3]; mouse, in vivo): virtually complete inhibition
adduct remaining [6]: 10%

COc1ccc(-n2nc(C(F)(F)F)cc2-c2ccc(Cl)cc2)cc1 [SC560, reference compound]
cholera toxin-induced fluid secretion ([3]; mouse, in vivo, sc): inhibits cholera toxin-induced fluid secretion

Cc1ccc(-c2cc(C(F)(F)F)nn2-c2ccc(S(N)(=O)=O)cc2)cc1 [celecoxib, reference compound]
CT-induced fluid accumulation in murine intestinal loops ([3]; 6 hours): significantly reduced
IC50 [7]: 20 µM
inhibition of adenylate cyclase enzyme activity (FIG. 12) [7, 8]: inhibit adenylate cyclase enzyme activity

c1c[nH]cn1 [imidazole]
IC50 [7]: 1570 µM
inhibition of adenylate cyclase enzyme activity (FIG. 12) [7, 8]: inhibit adenylate cyclase enzyme activity
Ratio Enzyme:Drug, molar concentration required to inhibit Adenylate Cyclase ([7]; enzyme 0.46 nm): 0.46 nm:1.57 mm

CS(=O)(=O)c1ccc(C2=C(c3ccccc3)C(=O)OC2)cc1 [rofecoxib, reference compound]
cholera toxin-induced secretion ([3]; mouse, in vivo): does not inhibit cholera toxin-induced secretion
inhibition of adenylate cyclase enzyme activity (FIG. 12) [7, 8]: absence of adenylate cyclase inhibition

prostaglandin E2-histidine [PGE2-histidine]
inhibition of the CT fluid response ([3]; mouse, in vivo): virtually complete inhibition
inhibition of adenylate cyclase enzyme activity (FIG. 12) [7]: inhibit adenylate cyclase enzyme activity
IC50 ([7]; read-out: IC50 dose inhibiting 50% of the enzyme activity): 21.5 µM
